In US20240294498A1, “FACTOR XIIA INHIBITORS” (Lunac Therapeutics Ltd, priority 2021, published 2024):

Tests used:
Format in all cases: biochemical
FXa = FXa (Homo sapiens, UniProt P00742); test: Determination of selectivity: FXa inhibition (chromogenic substrate S2765); details: fold selectivity for FXIIa over FXa (human); category
Outline: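 FXa (5 nM) preincubated with increasing compound (top 500 μM) for 10 mins at 37° C in 50 mM Tris, 137 mM NaCl pH 7.4, 5% DMSO, then S2765 added at its KM. Absorbance at 405 nm followed kinetically for 3 hours; IC50 from initial rates, converted to Ki by Cheng-Prusoff.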

FXIIa = target: T1, FXIIa (Homo sapiens, UniProt P00748); test: Determination of Factor XIIa inhibition (chromogenic substrate S-2302); details: human FXIIa alpha, Ki category
T1 construct: FXIIa alpha
T1 sequence (P00748 373-615 limits assumed): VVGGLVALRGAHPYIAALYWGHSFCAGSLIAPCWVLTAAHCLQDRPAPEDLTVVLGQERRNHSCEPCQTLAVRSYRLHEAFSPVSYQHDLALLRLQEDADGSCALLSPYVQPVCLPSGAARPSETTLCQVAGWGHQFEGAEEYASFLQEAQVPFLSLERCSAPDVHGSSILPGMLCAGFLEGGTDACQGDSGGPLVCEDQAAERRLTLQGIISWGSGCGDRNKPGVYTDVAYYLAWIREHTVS
T1 sequence (P00748 20-372 partner limits assumed): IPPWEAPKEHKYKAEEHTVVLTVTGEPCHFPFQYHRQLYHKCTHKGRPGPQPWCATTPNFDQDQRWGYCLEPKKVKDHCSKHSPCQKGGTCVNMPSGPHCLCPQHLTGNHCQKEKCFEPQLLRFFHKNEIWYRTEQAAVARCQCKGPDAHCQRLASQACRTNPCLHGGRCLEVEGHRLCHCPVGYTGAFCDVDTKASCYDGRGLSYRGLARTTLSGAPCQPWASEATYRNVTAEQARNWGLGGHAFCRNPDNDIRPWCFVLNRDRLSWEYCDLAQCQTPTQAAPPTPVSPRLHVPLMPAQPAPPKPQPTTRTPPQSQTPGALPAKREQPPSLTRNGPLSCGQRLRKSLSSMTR
Outline: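 Compound preincubated with 10 nM FXIIa for 10 min at 37° C in 50 mM Tris, 137 mM NaCl, pH 7.4, 5% DMSO, top concentration 500 μM; S-2302 added at Km. pNA release followed at 405 nm for 3 h; IC50 from initial rates, converted to Ki via Ki = IC50/(1+[S]/Km).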

thrombin = target: T2, thrombin (Homo sapiens, UniProt P00734); test: Determination of selectivity: thrombin inhibition (chromogenic substrate GPR); details: fold selectivity for FXIIa over thrombin (human); category
T2 construct: FXa (5 nM) and thrombin (5 nM)
Outline: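 Thrombin (5 nM) preincubated with increasing compound concentrations (top 500 μM, 5% DMSO) 10 min at 37 °C in 50 mM Tris, 137 mM NaCl pH 7.4, then GPR chromogenic substrate at its KM. pNA release read kinetically at 405 nm for 3 h at 37 °C. IC50 from initial rates, converted to Ki via Cheng–Prusoff.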

Chain of FXa (P00742 235-488 limits assumed): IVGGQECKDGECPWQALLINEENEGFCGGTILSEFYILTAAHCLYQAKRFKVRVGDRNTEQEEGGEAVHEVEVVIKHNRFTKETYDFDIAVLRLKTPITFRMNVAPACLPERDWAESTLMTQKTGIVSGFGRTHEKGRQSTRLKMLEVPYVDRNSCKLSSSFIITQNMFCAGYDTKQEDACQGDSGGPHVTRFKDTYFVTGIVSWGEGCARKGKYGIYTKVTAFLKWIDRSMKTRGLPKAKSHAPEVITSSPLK
Chain of FXa (P00742 41-179 partner limits assumed): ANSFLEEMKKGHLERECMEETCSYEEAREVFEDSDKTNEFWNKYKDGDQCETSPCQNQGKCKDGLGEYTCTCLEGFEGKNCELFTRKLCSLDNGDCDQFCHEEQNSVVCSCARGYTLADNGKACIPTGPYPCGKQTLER

Cc1ccc(C[C@@H]2C[C@@H](C(=O)NCC3CCn4c(nnc4C(F)(F)F)C3)N(C(=O)[C@@H]3NCCC[C@@H]3C(=O)N3CCCC3)C2)cc1 (stereo partly drawn) [Example M05851]
FXa (human)/FXIIa alpha (human) (FXa): ∘∘∘ | Ki (FXIIa): 0.8 to 5 µM | Thrombin (human)/FXIIa alpha (human) (thrombin): +++ (fold selectivity values greater than 100)

Cc1ccc(C[C@@H]2C[C@@H](C(=O)NCc3ccc4c(cnn4C)c3)N(C(=O)[C@@H]3NCCC[C@@H]3C(=O)N3CCC4(CC4)C3)C2)cc1 [Example M05766, (2S,4R)-1-[(2R,3S)-3-(5-azaspiro[2.4]heptane-5-carbonyl)piperidine-2-carbonyl]-N-[(1-methylindazol-5-yl)methyl]-4-(p-tolylmethyl)pyrrolidine-2-carboxamide]
FXa (human)/FXIIa alpha (human) (FXa): ∘∘∘ | Ki (FXIIa): < 0.2 µM | Thrombin (human)/FXIIa alpha (human) (thrombin): +++ (fold selectivity values greater than 100)

Cc1ccc(C[C@@H]2C[C@@H](C(=O)NCc3ccc4c(cnn4C)c3)N(C(=O)[C@@H]3NCCC[C@@H]3C(=O)N(C)C3CCN(CCF)CC3)C2)cc1 [Example M06083, (2R,3S)—N-[1-(2-fluoroethyl)-4-piperidyl]-N-methyl-2-[(2S,4R)-2-[(1-methylindazol-5-yl)methylcarbamoyl]-4-(p-tolylmethyl)pyrrolidine-1-carbonyl]piperidine-3-carboxamide]
FXa (human)/FXIIa alpha (human) (FXa): ∘∘∘ | Ki (FXIIa): < 0.2 µM | Thrombin (human)/FXIIa alpha (human) (thrombin): +++ (fold selectivity values greater than 100)

COCCN1CCC(N(C)C(=O)[C@H]2CCCN[C@H]2C(=O)N2C[C@H](Cc3ccc(C)cc3)C[C@H]2C(=O)NCc2ccc3c(cnn3C)c2)CC1 [Example M06084, (2R,3S)-N-(1-(2-methoxyethyl)piperidin-4-yl)-N-methyl-2-((2S,4R)-2-(((1-methyl-1H-indazol-5-yl)methyl)carbamoyl)-4-(4-methylbenzyl)pyrrolidine-1-carbonyl)piperidine-3-carboxamide]
FXa (human)/FXIIa alpha (human) (FXa): ∘∘∘ | Ki (FXIIa): < 0.2 µM | Thrombin (human)/FXIIa alpha (human) (thrombin): +++ (fold selectivity values greater than 100)

Cc1ccc2c(c1)CCN2C1C[C@@H](C(=O)NCc2ccc3c(cnn3C)c2)N(C(=O)[C@@H]2NCCC[C@@H]2C(=O)N2CCCC2)C1 (single isomer, unassigned) [Example M05839]
FXa (human)/FXIIa alpha (human) (FXa): ∘∘∘ | Ki (FXIIa): 0.2 to 0.8 µM | Thrombin (human)/FXIIa alpha (human) (thrombin): +++ (fold selectivity values greater than 100)

Cc1ccc(C[C@@H]2C[C@@H](C(=O)NCc3ccc4c(c3)nnn4C)N(C(=O)[C@@H]3NCCC[C@@H]3C(=O)N3CCC[C@@H]3C(F)(F)F)C2)s1 [Example M06079, (2S,4S)-N-+(1-methylbenzotriazol-5-yl)methyl+-4-+(5-methyl-2-thienyl)methyl+-1-+(2R,3S)-3-+(2R)-2-(trifluoromethyl)pyrrolidine-1-carbonyl+piperidine-2-carbonyl+pyrrolidine-2-carboxamide]
FXa (human)/FXIIa alpha (human) (FXa): ∘∘∘ | Ki (FXIIa): 0.2 to 0.8 µM | Thrombin (human)/FXIIa alpha (human) (thrombin): +++ (fold selectivity values greater than 100)

Cc1ccc(C[C@@H]2C[C@@H](C(=O)NCc3ccc4c(cnn4C)c3)N(C(=O)[C@@H]3NCCC[C@@H]3C(=O)N3CCC[C@@H]3C(F)(F)F)C2)cc1 [Example M05747, (2S,4R)-N-((1-methyl-1H-indazol-5-yl)methyl)-4-(4-methylbenzyl)-1-((2R,3S)-3-((R)-2-(trifluoromethyl)pyrrolidine-1-carbonyl)piperidine-2-carbonyl)pyrrolidine-2-carboxamide]
FXa (human)/FXIIa alpha (human) (FXa): ∘∘∘ | Ki (FXIIa): < 0.2 µM | Thrombin (human)/FXIIa alpha (human) (thrombin): +++ (fold selectivity values greater than 100)

Cc1ccc2c(c1)CCN2C1C[C@@H](C(=O)NCc2ccc3c(cnn3C)c2)N(C(=O)[C@@H]2NCCC[C@@H]2C(=O)N2CCCC2)C1 (single isomer, unassigned) [Example M05838]
FXa (human)/FXIIa alpha (human) (FXa): ∘∘∘ | Ki (FXIIa): 0.2 to 0.8 µM | Thrombin (human)/FXIIa alpha (human) (thrombin): +++ (fold selectivity values greater than 100)
